Experiment [1] concerns the target T1, full length human IRAK4 protein (Homo sapiens, UniProt Q9NWZ3).
T1 construct: Purified full length human IRAK4 protein; purchased Signal Chem 1112-10G-125
T1 sequence (Q9NWZ3 1-460): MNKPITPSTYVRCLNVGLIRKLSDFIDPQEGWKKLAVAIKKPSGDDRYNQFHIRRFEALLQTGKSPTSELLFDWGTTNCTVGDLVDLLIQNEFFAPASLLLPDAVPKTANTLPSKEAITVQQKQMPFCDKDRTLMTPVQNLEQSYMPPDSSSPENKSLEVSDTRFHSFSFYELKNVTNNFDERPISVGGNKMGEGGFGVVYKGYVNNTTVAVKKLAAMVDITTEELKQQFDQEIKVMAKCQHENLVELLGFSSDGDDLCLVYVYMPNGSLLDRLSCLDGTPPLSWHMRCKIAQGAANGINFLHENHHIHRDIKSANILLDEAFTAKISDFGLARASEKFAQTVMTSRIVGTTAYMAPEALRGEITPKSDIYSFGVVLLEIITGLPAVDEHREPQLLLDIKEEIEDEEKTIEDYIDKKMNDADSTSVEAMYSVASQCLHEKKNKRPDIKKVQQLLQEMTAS
Description: IRAK4 biochemical assay (Promega ADP-Glo IRAK4 Kinase Enzyme System). The conditions noted are these: 3 nM enzyme, 2 μM MBP, 250 μM ATP, 60 min at room temperature. How it is done: For the routine compound screening, an IRAK4 kinase assay was performed as follows using Promega ADP-Glo IRAK4 Kinase Enzyme System (Promega, Cat #2198-AD). Purified full length human IRAK4 protein (Signal Chem; Cat #1112-10G-125) was diluted to a concentration 6 nM in assay buffer (25 mM MOPS, pH 7.2, 12.5 mM β-glycerol-phosphate, 25 mM MgCl2, 5 mM EGTA, 2 mM EDTA, 0.0025% Brij-35, add 0.25 mM DTT to Kinase Assay Buffer prior to use) containing IRAK4 inhibitor at 2× the final concentration in 0.4% DMSO. The reaction was performed in PerkinElmer Proxiplate-384 plus white plate (Fisher Scientific, Cat #50-905-2761) and started by the addition of an equal volume of the assay buffer containing 4 μM native swine myelin basic protein (MBP) and 500 μM ATP to achieve a final concentration of 3 nM enzyme, 2 μM MBP, 250 μM ATP, 1×compound, and 0.2% DMSO. The kinase reaction was allowed to run for 60 min at room temperature (25-27° C.), then 5 μL of ADP-Glo was added to the reaction in each well followed by 40 minutes-incubation at RT. To detect converted ATP, 10 μL Detection Buffer was added into each well and Incubate at RT in dark for 30 minutes. Finally, luminescence was read using Tecan with 1000 ms of integration time. The luminescent signal positively correlates with ADP amount and kinase activity. Data was analyzed by GraphPad Prism and IC50 was calculated using function log(inhibitor) vs. response—Variable slope (four parameters). Percentage of inhibition was calculated as below:
% inhibition=(1−(Reading(Sample)−Reading(Negative Control))/(Reading(Positive Control)−Reading(Negative Control)))×100%
The 0% inhibition value comes from the Reading of Positive Control wells having 0 nM compound. The 100% inhibition value comes from the Reading of Negative Control wells having no IRAK4 kinase.

Experiment [2] relates to IRAK4 (TNFα in human peripheral blood mononuclear cells). Description: IRAK4 human PBMC TNFα cell based assay (AlphaLISA). Particulars: TNFα readout. How it is done:
In this assay, serially diluted compounds were incubated with 1×10^4 human peripheral blood mononuclear cells (PBMCs) from STEMCELL (Cat #70025.1) per well of 384-well plate (Fisher Scientific; 50-905-2761) and cultured with TexMACS medium (Miltenyi, Cat #130-097-196), stimulated by R848 (0.5 μM) or IL-1β (10 ng/ml). Plates were covered with lids and incubated for 4 h (R848, Fisher Scientific, Cat #NC9801605) or 24 h (IL-1β, Fisher Scientific, Cat #ENRIL1BI) at 37° C. in a humidified tissue-culture incubator. After a brief centrifugation at 1000 rpm for 5 minutes, 5 μl of culture medium was used for the measurement of the TNFα amount using TNFα (human) AlphaLISA Detection Kit (PerkinElmer, Cat #AL208C) according to manufacturer's protocol. A biotinylated anti-TNFα antibody binds to the Streptavidin-coated Donor beads while another anti-TNFα antibody is conjugated to AlphaLISA Acceptor beads. In the presence of the TNFα, the beads come into close proximity. The excitation of the Donor beads causes the release of singlet oxygen molecules that triggers a cascade of energy transfer in the Acceptor beads, resulting in a sharp peak of light emission at 615 nm. AlphaLISA assay plates were read using PHERAstar. Percentage of inhibition was calculated as below:
% inhibition=(1−(Reading(Sample)−Reading(Negative Control))/(Reading(Positive Control)−Reading(Negative Control)))×100% […]
(In general: Bead proximity is the source of the signal in Alpha formats.)

Read-outs that look alike come from different tables or passages of the source.

Broadly, the IC50 is the concentration at which inhibition is half-maximal. On to `COc1cc2c(OC[C@@H]3CCC(=O)N3)nsc2cc1C(N)=O` [Example 1, (S)-5-methoxy-3-((5-oxopyrrolidin-2-yl)methoxy)benzo[d]isothiazole-6-carboxamide], for which, in experiment [1], it took 240 nM to reach half-maximal inhibition (IC50) and the “IRAK4 Biochemical Assay Max Inhibition (%)” value is listed as 98.0%.

Consider `CC[C@@H]1[C@H](F)C(=O)N[C@@H]1COc1nsc2cc(C(N)=O)c(OC)cc12` [Example 2], for which the 50% inhibitory concentration (IC50) in experiment [2] (human PBMCs stimulated by IL-1β (10 ng/ml), 24 h, read-out: IRAK4 PBMC AlphaLISA IL-1β (IC50)) stood at 26 nM; in experiment [2] (human PBMCs stimulated by R848 (0.5 μM), 4 h, read-out: IRAK4 PBMC AlphaLISA R848 (IC50)) it was 21 nM; in experiment [1], 14 nM. Moreover, in experiment [1], the “IRAK4 Biochemical Assay Max Inhibition (%)” value was found to be 93.0%.

(Values after patent publication US20220213086A1, “AZOLE COMPOUNDS AS IRAK INHIBITORS, PREPARATION METHODS AND MEDICINAL USES THEREOF” (Eternity Bioscience Inc., priority 2020, published 2022).)
